Reference: PMC10763615, “Identification and engineering of potent cyclic peptides with selective or promiscuous binding through biochemical profiling and bioinformatic data analysis” (RSC Chemical Biology, 2023)
Read-outs that look alike come from different tables or passages of the source. Positions of bridges follow the written chain, without caps; N, C: chain ends. Residues, ends and D or L forms follow the SMILES beside them.

Key:
Assay type in all cases: binding
FGF-R4 ECD = target: T1, FGF-R4 ECD (Homo sapiens, UniProt P22455); experiment: single concentration BLI of crude peptides; details: read-out: KD (4)
T1 construct: DNA constructs for the extracellular domain (ECD) of human FGF-; HPC4 (C); made in house; host or cells: HEK 293-6E
T1 sequence (P22455 22-369 limits assumed): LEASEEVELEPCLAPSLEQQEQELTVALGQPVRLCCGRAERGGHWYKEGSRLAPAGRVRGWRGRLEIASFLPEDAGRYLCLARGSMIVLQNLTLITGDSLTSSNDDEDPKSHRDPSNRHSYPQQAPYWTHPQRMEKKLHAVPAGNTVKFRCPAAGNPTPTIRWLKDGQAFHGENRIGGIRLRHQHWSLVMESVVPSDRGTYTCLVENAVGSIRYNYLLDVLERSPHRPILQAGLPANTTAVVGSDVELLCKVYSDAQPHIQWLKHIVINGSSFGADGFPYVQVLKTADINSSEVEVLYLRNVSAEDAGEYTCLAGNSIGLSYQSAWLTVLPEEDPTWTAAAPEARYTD
Procedure, shortened: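 Streptavidin biosensors carrying biotinylated FGF receptor ECD were immersed in peptide (~1 μM for crude single-point runs, a concentration series for purified peptides) and then in peptide-free buffer. KD was obtained by fitting the BLI association and dissociation curves.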

FGF-R1C ECD = target: T2, FGF-R1C ECD (Homo sapiens, UniProt P11362); experiment: biochemical; design: DNA constructs for the extracellular domain (ECD) of human FGF-; HPC4 (C); made in house; host or cells: HEK 293-6E
T2 sequence (P11362 22-376 limits assumed): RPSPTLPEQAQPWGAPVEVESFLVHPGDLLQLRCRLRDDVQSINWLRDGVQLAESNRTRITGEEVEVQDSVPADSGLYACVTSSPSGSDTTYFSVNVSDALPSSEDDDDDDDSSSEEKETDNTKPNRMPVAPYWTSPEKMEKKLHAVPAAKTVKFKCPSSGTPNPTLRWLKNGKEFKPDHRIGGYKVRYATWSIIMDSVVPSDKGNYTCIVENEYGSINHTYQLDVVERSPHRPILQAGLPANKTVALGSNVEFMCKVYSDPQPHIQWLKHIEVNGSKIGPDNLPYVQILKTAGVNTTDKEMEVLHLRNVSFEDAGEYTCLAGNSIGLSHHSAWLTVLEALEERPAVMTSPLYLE
Procedure, shortened: (§1)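 Biotinylated FGF-R ECD on streptavidin biosensors was dipped into ~1 μM crude peptide in PBS pH7.4 with 0.05% Tween-20 and 0.01% BSA for association, then into buffer for dissociation, and followed by BLI. Fitted KD values were adjusted for peptide concentration measured by UPLC-CAD.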

FGF-R3C ECD = target: T3, FGF-R3C ECD (Homo sapiens, UniProt P22607); experiment: biochemical; design: DNA constructs for the extracellular domain (ECD) of human FGF-; HPC4 (C); made in house; host or cells: HEK 293-6E
T3 sequence (P22607 23-375 limits assumed): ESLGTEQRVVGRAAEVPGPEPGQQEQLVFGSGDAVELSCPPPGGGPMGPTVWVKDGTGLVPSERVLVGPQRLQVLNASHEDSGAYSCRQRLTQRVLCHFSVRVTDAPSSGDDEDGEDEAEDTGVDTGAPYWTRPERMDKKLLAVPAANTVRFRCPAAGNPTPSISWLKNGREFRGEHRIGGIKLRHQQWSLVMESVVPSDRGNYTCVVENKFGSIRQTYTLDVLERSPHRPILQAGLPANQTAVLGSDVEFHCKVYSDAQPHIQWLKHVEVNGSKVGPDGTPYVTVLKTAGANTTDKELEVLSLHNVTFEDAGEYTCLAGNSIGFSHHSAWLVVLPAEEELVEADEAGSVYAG
Procedure, shortened: as §1

[1] = crude T18 selection 1 (1:1:1) peptides, single concentration BLI (Table S4)
[2] = crude NNK peptides, single concentration BLI (Table S3)

SMILES | Kd (FGF-R4 ECD; [1]) | Kd (FGF-R1C ECD) | Kd (FGF-R3C ECD) | Kd (FGF-R4 ECD; [2])
CC[C@H](C)[C@@H]1NC(=O)[C@H](Cc2c[nH]cn2)NC(=O)[C@H](CCCCN)NC(=O)[C@H](Cc2ccc(O)cc2)NC(=O)[C@@H](NC(=O)[C@H](CCSC)NC(C)=O)CSSC[C@@H](C(=O)NCC(=O)N[C@@H](CO)C(=O)NCC(=O)N[C@@H](CO)C(=O)N[C@@H](CCC(=O)O)C(=O)N[C@@H](CCC(=O)O)C(=O)NCC(=O)N[C@@H](CO)C(=O)NCC(=O)N[C@@H](CO)C(=O)N[C@@H](CC(=O)O)C(=O)N[C@@H](Cc2ccc(O)cc2)C(=O)N[C@@H](CCCCN)C(=O)N[C@@H](CC(=O)O)C(=O)N[C@@H](CC(=O)O)C(=O)N[C@@H](CC(=O)O)C(=O)N[C@@H](CC(=O)O)C(=O)N[C@@H](CCCCN)C(N)=O)NC(=O)[C@H](CC(C)C)NC(=O)[C@H](CCCCN)NC(=O)[C@H](CCC(N)=O)NC(=O)[C@H]([C@@H](C)CC)NC(=O)[C@H](CCCCN)NC(=O)[C@H](Cc2ccc(O)cc2)NC(=O)[C@H](Cc2c[nH]c3ccccc23)NC(=O)[C@H](CC(C)C)NC1=O (Ac-MCYKHILWYKIQKLCGSGSEEGSGSDYKDDDDK-NH2; disulfide 2-15) | 0.001 µM | 0.033 µM | > 10 µM | 
CC[C@H](C)[C@@H]1NC(=O)[C@H](CC(N)=O)NC(=O)[C@H](Cc2ccc(O)cc2)NC(=O)[C@@H](NC(=O)[C@H](CCSC)NC(C)=O)CSSC[C@@H](C(=O)NCC(=O)N[C@@H](CO)C(=O)NCC(=O)N[C@@H](CO)C(=O)N[C@@H](CC(=O)O)C(=O)N[C@@H](Cc2ccc(O)cc2)C(=O)N[C@@H](CCCCN)C(=O)N[C@@H](CC(=O)O)C(=O)N[C@@H](CC(=O)O)C(=O)N[C@@H](CC(=O)O)C(=O)N[C@@H](CC(=O)O)C(=O)N[C@@H](CCCCN)C(N)=O)NC(=O)[C@H](CCC(=O)O)NC(=O)[C@H](CCCNC(=N)N)NC(=O)[C@H](CCCNC(=N)N)NC(=O)[C@H](C(C)C)NC(=O)[C@H](Cc2ccc(O)cc2)NC(=O)[C@H](CCCCN)NC(=O)[C@H](Cc2ccc(O)cc2)NC(=O)[C@H](Cc2c[nH]c3ccccc23)NC(=O)[C@H](Cc2ccc(O)cc2)NC1=O (Ac-MCYNIYWYKYVRRECGSGSDYKDDDDK-NH2; disulfide 2-15) | 0.001 µM | 0.387 µM | > 10 µM | 
CSCC[C@H](NC(C)=O)C(=O)N[C@H]1CSSC[C@@H](C(=O)NCC(=O)N[C@@H](CO)C(=O)NCC(=O)N[C@@H](CO)C(=O)N[C@@H](CCC(=O)O)C(=O)N[C@@H](CCC(=O)O)C(=O)NCC(=O)N[C@@H](CO)C(=O)NCC(=O)N[C@@H](CO)C(=O)N[C@@H](CC(=O)O)C(=O)N[C@@H](Cc2ccc(O)cc2)C(=O)N[C@@H](CCCCN)C(=O)N[C@@H](CC(=O)O)C(=O)N[C@@H](CC(=O)O)C(=O)N[C@@H](CC(=O)O)C(=O)N[C@@H](CC(=O)O)C(=O)N[C@@H](CCCCN)C(N)=O)NC(=O)[C@H](CCCCN)NC(=O)[C@H](CCCCN)NC(=O)[C@H](CCC(N)=O)NC(=O)[C@H](Cc2ccc(O)cc2)NC(=O)[C@H](CCCCN)NC(=O)[C@H](Cc2ccc(O)cc2)NC(=O)[C@H](Cc2c[nH]c3ccccc23)NC(=O)[C@H](CC(C)C)NC(=O)[C@H](C(C)C)NC(=O)[C@H]([C@@H](C)O)NC(=O)[C@H](Cc2ccc(O)cc2)NC1=O (Ac-MCYTVLWYKYQKKCGSGSEEGSGSDYKDDDDK-NH2; disulfide 2-14) | 0.001 µM | > 10 µM | > 10 µM | 
CSCC[C@H](NC(C)=O)C(=O)N[C@H]1CSSC[C@@H](C(=O)NCC(=O)N[C@@H](CO)C(=O)NCC(=O)N[C@@H](CO)C(=O)N[C@@H](CC(=O)O)C(=O)N[C@@H](Cc2ccc(O)cc2)C(=O)N[C@@H](CCCCN)C(=O)N[C@@H](CC(=O)O)C(=O)N[C@@H](CC(=O)O)C(=O)N[C@@H](CC(=O)O)C(=O)N[C@@H](CC(=O)O)C(=O)N[C@@H](CCCCN)C(N)=O)NC(=O)[C@H](CCCCN)NC(=O)[C@H](CC(C)C)NC(=O)[C@H](C(C)C)NC(=O)[C@H](CC(C)C)NC(=O)[C@H](CCC(=O)O)NC(=O)[C@@H]2CCCN2C(=O)[C@H](CCSC)NC(=O)[C@H](Cc2ccccc2)NC(=O)[C@H](Cc2c[nH]c3ccccc23)NC(=O)[C@H](Cc2c[nH]c3ccccc23)NC1=O (Ac-MCWWFMPELVLKCGSGSDYKDDDDK-NH2; disulfide 2-13) |  | > 10 µM | > 10 µM | > 10 µM
CSCC[C@H](NC(C)=O)C(=O)N[C@H]1CSSC[C@@H](C(=O)NCC(=O)N[C@@H](CO)C(=O)NCC(=O)N[C@@H](CO)C(=O)N[C@@H](CCC(=O)O)C(=O)N[C@@H](CCC(=O)O)C(=O)NCC(=O)N[C@@H](CO)C(=O)NCC(=O)N[C@@H](CO)C(=O)N[C@@H](CC(=O)O)C(=O)N[C@@H](Cc2ccc(O)cc2)C(=O)N[C@@H](CCCCN)C(=O)N[C@@H](CC(=O)O)C(=O)N[C@@H](CC(=O)O)C(=O)N[C@@H](CC(=O)O)C(=O)N[C@@H](CC(=O)O)C(=O)N[C@@H](CCCCN)C(N)=O)NC(=O)[C@H](CCCNC(=N)N)NC(=O)[C@H](CCC(N)=O)NC(=O)[C@H](Cc2c[nH]cn2)NC(=O)[C@H](Cc2c[nH]c3ccccc23)NC(=O)[C@H](CC(C)C)NC(=O)[C@H](CCCCN)NC(=O)[C@H](Cc2c[nH]c3ccccc23)NC(=O)[C@H](Cc2ccc(O)cc2)NC(=O)[C@H](Cc2ccccc2)NC(=O)[C@H](CC(C)C)NC(=O)[C@H](Cc2c[nH]cn2)NC(=O)[C@H](CCCNC(=N)N)NC1=O (Ac-MCRHLFYWKLWHQRCGSGSEEGSGSDYKDDDDK-NH2; disulfide 2-15) | 0.002 µM | > 10 µM | > 10 µM | 
CSCC[C@H](NC(C)=O)C(=O)N[C@H]1CSSC[C@@H](C(=O)NCC(=O)N[C@@H](CO)C(=O)NCC(=O)N[C@@H](CO)C(=O)N[C@@H](CC(=O)O)C(=O)N[C@@H](Cc2ccc(O)cc2)C(=O)N[C@@H](CCCCN)C(=O)N[C@@H](CC(=O)O)C(=O)N[C@@H](CC(=O)O)C(=O)N[C@@H](CC(=O)O)C(=O)N[C@@H](CC(=O)O)C(=O)N[C@@H](CCCCN)C(N)=O)NC(=O)[C@H](Cc2c[nH]cn2)NC(=O)[C@H](Cc2c[nH]c3ccccc23)NC(=O)[C@H](CC(N)=O)NC(=O)[C@H](Cc2ccc(O)cc2)NC(=O)[C@H](Cc2c[nH]cn2)NC(=O)[C@H](Cc2c[nH]cn2)NC(=O)[C@H](CO)NC(=O)[C@H](Cc2ccc(O)cc2)NC(=O)[C@H](CCC(N)=O)NC(=O)[C@H](Cc2c[nH]c3ccccc23)NC(=O)[C@H](C(C)C)NC1=O (Ac-MCVWQYSHHYNWHCGSGSDYKDDDDK-NH2; disulfide 2-14) | > 10 µM | > 10 µM | > 10 µM | 
CSCC[C@H](N)C(=O)N[C@H]1CSSC[C@@H](C(=O)NCC(=O)N[C@@H](CO)C(=O)NCC(=O)N[C@@H](CO)C(=O)N[C@@H](CC(=O)O)C(=O)N[C@@H](Cc2ccc(O)cc2)C(=O)N[C@@H](CCCCN)C(=O)N[C@@H](CC(=O)O)C(=O)N[C@@H](CC(=O)O)C(=O)N[C@@H](CC(=O)O)C(=O)N[C@@H](CC(=O)O)C(=O)N[C@@H](CCCCN)C(N)=O)NC(=O)[C@H](Cc2ccccc2)NC(=O)[C@H](C(C)C)NC(=O)[C@H](Cc2ccccc2)NC(=O)[C@@H]2CCCN2C(=O)[C@H](CC(C)C)NC(=O)[C@H](Cc2c[nH]c3ccccc23)NC(=O)[C@H](CO)NC(=O)[C@H](CC(=O)O)NC(=O)[C@H](Cc2ccccc2)NC(=O)[C@H](C(C)C)NC1=O (H-MCVFDSWLPFVFCGSGSDYKDDDDK-NH2; disulfide 2-13) |  | > 10 µM | 1.06 µM | > 10 µM
